Test results from patent US20080319001A1, “Cancer Treatment Using Specific 3,6,9-Substituted Acridines” (priority 2005, published 2008).
Read-outs that look alike come from different tables or passages of the source.

Key:
[1] = Cytotoxicity / growth inhibition, MCF7; assay type: cell-based; conditions: human, MCF7 cells; read-out: Cytotoxic IC50 vs. MCF7
[2] = Pharmacokinetic evaluation in mice (plasma kinetics); assay type: in vivo, mouse; conditions: for AUC(0-t): female, MF1, mouse
Protocol: The test article is identified as BSG17 and has been studied in comparison to BSG01 (BRACO-19). The vials containing bulk test article were stored at room temperature (15-30° C.).
The test compound was reconstituted in 0.9% physiological saline B.P. to the required final concentrations. To ensure the stability of the test formulations, prepared formulations were administered within two hours of preparation.
Treated mice received a single bolus intravenous injection or oral gavage of the test formulations at a dose-volume of […] bodyweight. Control mice were untreated.
The mouse was selected because it is a rodent species and is acceptable to the regulatory authorities for pharmacokinetic studies. Dose levels of 1 mg/kg (intravenous) and 20 mg/kg (oral) were selected for this study.
Female MF1 mice in the weight rang of 26-30 g (6 to 8 weeks of age) were obtained from the BRF Facility, SGHMS/Harlan UK, Bicester and were individually identified using a permanent tail mark (using a non-toxic marker pen). The test article was administered to thirty-six (36) mice after a period of seven (7) days of acclimatisation to the study room.
Blood samples were obtained from three mice per time point and at the time points as specified below:
Blood samples were collected by cardiac puncture with mice held under deep halothane anaesthesia. After sampling mice were euthanased by cervical dislocation.
Samples were collected into pre-heparinised syringes and the samples transferred into 1 ml eppendorf tubes. Plasma was prepared by centrifugation, transferred to clean, labelled eppendorf tubes and frozen at approximately −20° C. pending analysis.
Samples were analysed using HPLC or GC-MS/MS methodology.
Composite plasma concentration time curves were generated over the period of 6-8 hours after the bolus iv or oral dose was administered.

[3] = Thermodynamic solubility; assay type: physicochemical; conditions: for solubility at 24 h: thermodynamic from solid, read-out: Solubility Free Base equivalent
Protocol: Thermodynamic solubility values were determined in each of 0.1M HCl, Deionised water, pH6.8 phosphate buffer, 0.9% saline and 5% dextrose.
1.25-1.5 mg of sample was weighed out into a 1 ml HPLC tube to which 0.25 ml of the dissolution media was added to allow for determination of solubility up to 5 mg/ml. This suspension was then shaken for 24 hours before measurement of the pH, filtration (through a 96 well plate with a glass fibre filter membrane), dilution and analysis of the neat and diluted solutions at different injection volumes on a generic 5 minute HPLC method.
A reference solution was prepared in DMSO for comparison and calculation of the test solubilities. XRPD patterns were measured of remaining solids from experiments where complete dissolution was not achieved.
It is believed the large additional peak noted in the HPLC chromatograms is due to a rotamer of the parent compound. This should therefore be included in the overall peak area assessment. Therefore, the largest and second largest peaks noted in the reference solution were added together as were the same peaks (i.e. the same retention times) in the test sample injections.

[4] = pKa measurement (Sirius GlpKa, potentiometric and UV titration); assay type: physicochemical
Protocol: Pka determination was performed on a Sirius GlpKa instrument equipped with a D-PAS (Dip-Probe Absorption Spectroscopy) attachment. Measurements were made by potentiometric and UV titration in MeOH:H2O mixtures at 25° C. The titration media was ionic strength adjusted with 0.15 M KCl. The values found in the MeOH:H2O mixtures were extrapolated to 0% co-solvent via a Yasuda-Shedlovsky extrapolation. Prediction of pKa values was made using ACD v8.07 software.
BSG01-4.14 from aqueous UV measurement (Potentiometry gave 4.15 although incomplete curves were collected). Other values from potentiometric in Aqueous/MeOH mixtures followed by Yasuda-Shedlovsky extrapolation to 0% MeOH. All pKas basic from slope of extrapolation. P BSG17—Values from potentiometric titrations in Aqueous/MeOH mixtures followed by Yasuda-Shedlovsky extrapolation to 0% MeOH. All pKas basic from slop of extrapolation. PKas 2 and 3 for titration in 30% MeOH removed from YS extrapolation due to precipitation.

[5] = HPLC solution stability; assay type: physicochemical
Protocol: Due to the generally low solubility of these compounds in 0.9% NaCl and 5% dextrose it was decided to mix these media with 50% Iso-propanol (IPA) to maintain full dissolution of the compound during these studies.
The remaining 5 mg/ml DMSO stock solution from the pKa determination was used for the stability studies. This solution had been stored in the fridge for several days before these stability studies. A solution with a concentration of 0.1 mg/ml was prepared for each experiment (50 fold dilution of DMSO stock). Stability trials were carried out at 4° C. (fridge) and 25° C. (on top of shaker at 25° C.) and at time points of 0, 1 and 7 days. In the case of 100% IPA data was collected at 0, 1 and 14 days after storage at 25° C. The HPLC purity method discussed in section 4.5 below was used for purity analysis. The largest and second largest peaks were added together due to separation of rotamers as discussed above.

[6] = 0.9% NaCl mixed with 50% IPA, 0 days
[7] = 0.9% NaCl mixed with 50% IPA, 1 day, 4 ° C.
[8] = 0.9% NaCl mixed with 50% IPA, 1 day, 25 ° C.
[9] = 0.9% NaCl mixed with 50% IPA, 7 days, 4 ° C.
[10] = 0.9% NaCl mixed with 50% IPA, 7 days, 25 ° C.
[11] = 5% Dextrose mixed with 50% IPA, 0 days
[12] = 5% Dextrose mixed with 50% IPA, 1 day, 4 ° C.
[13] = 5% Dextrose mixed with 50% IPA, 1 day, 25 ° C.
[14] = 5% Dextrose mixed with 50% IPA, 7 days, 4 ° C.
[15] = 5% Dextrose mixed with 50% IPA, 7 days, 25 ° C.

O=C(CCN1CCCC1)Nc1ccc2c(NCc3ccc(F)c(F)c3)c3ccc(NC(=O)CCN4CCCC4)cc3nc2c1 [BSG17, N-(9-(3,4-Difluoro-benzylamino)-6-(3-pyrolidin-1-yl-propionamide)-acridin-3-yl)-3-pyrrolidin-1-yl-propionamide]
IC50 at 96 h [1]: 2260 nM | AUC(0-t) ([2]; Table 3): 1.23 µM·h | AUC(0-t) ([2]; unit inferred): 1.23 µM·h | Cmax ([2]; mouse, female MF1 mice): 1700 nM | clearance ([2]; mouse, female MF1 mice): 0.667 mL/min | half-life ([2]; mouse, female MF1 mice, single dose (1 mg/kg iv or 20 mg/kg oral; route not stated with values)): 126 min | PH of unfiltered Saturated solution ([3]; 0.1M HCl): 1.12 | PH of unfiltered Saturated solution ([3]; 0.9% NaCl): 8.81 | solubility at 24 h ([3]; 0.9% saline, saline or isotonic, 0.9% NaCl): < 1 µg/mL | PH of unfiltered Saturated solution ([3]; 5% Dextrose): 7.96 | PH of unfiltered Saturated solution ([3]; Water): 8.34 | solubility at 24 h ([3]; aqueous buffer, pH 6.8 phosphate buffer): 1950 µg/mL | solubility at 24 h ([3]; deionised water, Water): 20 µg/mL | PH of unfiltered Saturated solution ([3]; pH 6.8 phosphate buffer): 7.49 | solubility at 24 h ([3]; saline or isotonic, 5% Dextrose): 300 µg/mL | solubility at 24 h ([3]; simulated gastric fluid, 0.1M HCl): > 5000 µg/mL | pKa ([4]; UV + Pot, 25° C., 0.15 M KCl, read-out: Measured pKa, pKa1): 8.17 | pKa ([4]; potentiometric in aqueous/MeOH, Yasuda-Shedlovsky extrapolation to 0% MeOH, read-out: Measured pKa, pKa2): 9.09 | pKa ([4]; potentiometric in aqueous/MeOH, Yasuda-Shedlovsky extrapolation to 0% MeOH, read-out: Measured pKa, pKa3): 9.61 | Combined rotamer purity [5, 6]: 89.4 | Purity larger rotamer peak [5, 6]: 61.4 | Purity smaller rotamer peak [5, 6]: 28.0 | Combined rotamer purity [5, 7]: 85.1 | Purity larger rotamer peak [5, 7]: 58.4 | Purity smaller rotamer peak [5, 7]: 26.8 | Combined rotamer purity [5, 8]: 82.4 | Purity larger rotamer peak [5, 8]: 55.9 | Purity smaller rotamer peak [5, 8]: 26.5 | Combined rotamer purity [5, 9]: 61.0 | Purity larger rotamer peak [5, 9]: 39.2 | Purity smaller rotamer peak [5, 9]: 21.8 | Combined rotamer purity [5, 10]: 54.5 | Purity larger rotamer peak [5, 10]: 33.8 | Purity smaller rotamer peak [5, 10]: 20.8 | Combined rotamer purity [5, 11]: 88.5 | Purity larger rotamer peak [5, 11]: 60.7 | Purity smaller rotamer peak [5, 11]: 27.8 | Combined rotamer purity [5, 12]: 83.8 | Purity larger rotamer peak [5, 12]: 56.9 | Purity smaller rotamer peak [5, 12]: 26.9 | Combined rotamer purity [5, 13]: 78.0 | Purity larger rotamer peak [5, 13]: 52.4 | Purity smaller rotamer peak [5, 13]: 25.6 | Combined rotamer purity [5, 14]: 53.2 | Purity larger rotamer peak [5, 14]: 32.5 | Purity smaller rotamer peak [5, 14]: 20.7 | Combined rotamer purity [5, 15]: 39.4 | Purity larger rotamer peak [5, 15]: 22.3 | Purity smaller rotamer peak [5, 15]: 17.1 | Combined rotamer purity ([5]; 100% IPA, 0 days): 84.6 | Purity larger rotamer peak ([5]; 100% IPA, 0 days): 58.8 | Purity smaller rotamer peak ([5]; 100% IPA, 0 days): 25.8 | Combined rotamer purity ([5]; 100% IPA, 1 day, 25 ° C.): 81.5 | Purity larger rotamer peak ([5]; 100% IPA, 1 day, 25 ° C.): 56.6 | Purity smaller rotamer peak ([5]; 100% IPA, 1 day, 25 ° C.): 25.0 | Combined rotamer purity ([5]; 100% IPA, 14 days, 25 ° C.): 77.2 | Purity larger rotamer peak ([5]; 100% IPA, 14 days, 25 ° C.): 52.7 | Purity smaller rotamer peak ([5]; 100% IPA, 14 days, 25 ° C.): 24.5
